Laboratory results published in publication PMC4921109 (Cancer Chemotherapy and Pharmacology, 2016).
“Also recorded” adds a separate entry of the source. Where two headings read alike, the source gives them in different places.

Assays:
[1] = cited from earlier work
[2] = clinical; settings: female, human, plasma, po, 150 mg
[3] = system: Caco-2 cells; settings: cited from earlier work
[4] = vismodegib; ANOVA, back-transformed; day 7 (day 11 in Arm B)
[5] = Phase Ib drug–drug interaction study: safety and tolerability (adverse events); type: in vivo, human
Source text: This was a phase Ib, open-label, four-arm, parallel design, multicenter, multiple-dose study in healthy female subjects of non-childbearing potential. Subjects were randomly assigned to 1 of 4 treatment arms in a 1:1:1:1 ratio with stratification according to AAG concentration [low (0.5–0.73 g/L), medium (0.74–0.96 g/L), or high (0.97–1.2 g/L)].

[6] = system: P-glycoprotein (P-gp); settings: MDCK cells overexpressing P-gp; cited from earlier work
[7] = unbound vismodegib; geometric mean (CV %); 2, 6 and 12 h postdose on day 7 (day 11 in Arm B); vismodegib 150 mg QD
Description: PK parameters were calculated using noncompartmental methods with WinNonlin (Pharsight Corporation, Mountain View, CA; Version 5.2); the PK analysis used actual times as recorded on the case report form.

[8] = system: human hepatocytes; parameters: method as in PMID 19845436; settings: 3-h incubation with human hepatocytes; cited from earlier work
[9] = cited from earlier work; remark: listed apart in the source
[10] = system: CYP2C9 and CYP3A4; settings: cited from earlier work
[11] = parameters: method as in PMID 19845436; settings: cited from earlier work
[12] = cited from earlier work; remark: listed apart in the source
[13] = number of subjects (percent), safety population

CS(=O)(=O)c1ccc(C(=O)Nc2ccc(Cl)c(-c3ccccn3)c2)c(Cl)c1 [Vismodegib, 2-chloro-N-(4-chloro-3-(pyridin-2-yl)phenyl)-4-(methylsulfonyl) benzamide]
Absolute bioavailability at steady state [1]: less than 10%
Change in steady-state plasma concentrations with dose ([1]; daily dose increased from 150 to 270 or 540 mg): no increase
Increase in total clearance with multiple dosing ([1]; healthy subjects): 81%
Oral steady-state AUC0–24h after multiple dosing compared with AUC from zero to infinity after a single dose ([1]; healthy subjects): approximately eightfold lower
PK variability explained by AAG levels ([1]; patients): > 70%
PK variability explained by AAG levels ([1]; ref data on file): > 70%
Terminal elimination half-life ([1]; single dose): 12 days
AUC(0-t) [2]: 140 µM·h
Cmax [2]: 7 µM
Tmax [2]: 6 h
Permeability [3]: high permeability
Geometric LS mean of AUC0–24h at steady state [4]: 402 µmol·h/L
Most frequent AEs related to vismodegib: constipation ([5]; across the study): 10.5%
Most frequent AEs related to vismodegib: diarrhea ([5]; across the study): 8.0%
Most frequent AEs related to vismodegib: headache ([5]; across the study): 10.5%
Most frequent AEs related to vismodegib: nausea ([5]; across the study): 9.3%
Treatment-emergent AE: Abdominal distention [5, 13]: 1 (4.5)
Treatment-emergent AE: Abdominal pain [5, 13]: 1 (4.5)
Treatment-emergent AE: Constipation [5, 13]: 4 (18.2)
Treatment-emergent AE: Diarrhea [5, 13]: 1 (4.5)
Treatment-emergent AE: Dizziness [5, 13]: 2 (9.1)
Treatment-emergent AE: Flatulence [5, 13]: 1 (4.5)
Treatment-emergent AE: Headache [5, 13]: 4 (18.2)
Treatment-emergent AE: Nausea [5, 13]: 2 (9.1)
Treatment-emergent AE: Pruritus [5, 13]: 0
Treatment-emergent AE: Rash [5, 13]: 0
Number of treatment-emergent AEs considered related to vismodegib ([5]; of the 127 treatment-emergent AEs): 92
P-gp substrate status [6]: weak substrate of P-gp; also recorded: P-glycoprotein (P-gp) substrate
Css,ave,u (average unbound plasma concentration at steady state) [7]: 0.150 (50.2) µmol/L
Parent remaining [8]: 96%
Decrease in solubility from pH 2 to 7 [9]: 10,000 fold
Metabolizing enzymes [10]: primarily metabolized by CYP2C9 and CYP3A4
Predicted preclinical efficacious levels (unbound concentration range required for efficacy) [11]: 0.042 to 0.068 µM

COC(=O)N[C@H](C(=O)N[C@@H](Cc1ccccc1)[C@@H](O)CN(Cc1ccc(-c2ccccn2)cc1)NC(=O)[C@@H](NC(=O)OC)C(C)(C)C)C(C)(C)C [atazanavir]
Change in bioavailability on co-administration of the PPI lansoprazole [12]: large reduction

CC(=O)N1CCN(c2ccc(OCC3COC(Cn4ccnc4)(c4ccc(Cl)cc4Cl)O3)cc2)CC1 (centres unmarked) [ketoconazole]
Impairment of absorption by acid-reducing agents [12]: more than 90%
